What was measured:
[1] = tested on: pulp cells from rat upper incisor; experiment: Induction of odontoblast differentiation using pulp cells (Dspp, enamelysin real-time RT-PCR); assay type: cell-based; conditions: MMP3 100 ng/ml, 14 days and 21 days
Procedure: Pulp cells were isolated from rat upper incisor by the trypsin and collagenase digestion method and cultured in DMEM (Sigma, St. Louis, Mo., USA) including L-ascorbic acid phosphoric acid magnesium salt (Wako pure medicine) and 10% of […] fetal bovine serum (SAFC Biosciences, Lenexa, Kans., USA) and 100 unit/ml penicillin G, 100 μg/ml streptomycin (Invitrogen, Carlsbad, Calif., USA). MMP3 was added 100 ng/ml of MMP3, or 0.13 μmol of NNGH and 50 ng/ml human recombinant BMP2 to the cells at second passage of culture after confluence. Total RNA was extracted 14 days or 21 days after and analyzed expression of odontoblastic differentiation markers, dentin sialophosphoprotein (Dspp) and enamelysin by Real-time RT-PCR (table 1). […] When MMP3 was added, the differentiation inductive effect into odontoblasts in particular was […] in comparison without adding MMP3 of the control 14 days and 21 days after treatment.

HUVEC [2] = experiment: Modified Boyden chamber migration assay; assay type: cell-based, human
Procedure: Modified Boyden chamber assay was performed at 37° C. with a PET membrane (BD Bioscience, Franklin Lakes, N.J.) of 24 well for 24 hours. In the presence of 10 ng/ml of MMP3, 100 ng/ml of MMP3, 100 ng/ml of MMP3 and 0.13 μmol of NNGH, 50 ng/ml of MMP10, 50 ng/ml of MMP10 and 0.13 μmol of NNGH, 0.13 μmol of NNGH only, or 50 ng/ml of VEGF-A, 5×10^4 cells of HUVEC was cultured in the upper part of the chamber. As a control, a 0.02% bovine serum albumin (Sigma) was used. After incubations, HUVEC which migrated to the lower part of the membrane was detached by trypsin treatment and counted. […] The data represented the mean±SD of 4 samples.

[3] = tested on: Human umbilical vein endothelial cells (HUVECs); experiment: Proliferative effect on endothelial cells (Tetra-color one, 450 nm absorbance); assay type: cell-based; conditions: HUVEC
Procedure: Human umbilical vein endothelial cells (HUVECs) (KURABO Industries, Osaka,) were seeded with 1,000 cells per 96 well. […] Ten μl of Tetra-color one (Seikagaku Kogyo, Co., Tokyo, Japan) was added to the 96 well plate, and cell numbers were measured using spectrophotometer at 450 nm absorbance at 2, 12, 24, 36, 48, 60 hours of culture. Wells without cells were served as negative controls.

[4] = tested on: inflamed pulp (pulpitis) of dog upper premolar tooth; experiment: Dog pulpitis model; assay type: in vivo
Procedure: The inflammation of the pulp was produced be open with cotton for 24 hours after pulpotomy in the dog upper premolar tooth. Subsequently 100 ng of MMP3 absorbed in spongel was applied to the amputated pulp after washing with 5% sodium hypochlorite solution and 3% hydrogen peroxide and further with a saline. Furthermore, the cavity was filled with phosphate cement and temporally sealed with a chemical polymerization composite resin after application with a bonding agent. The tooth was extracted 14 days later, immersed at 4° C. overnight and followed by fixation and decalcification at 4° C. in 10% formic acid for one week. The reparative dentin formation was observed by an light microscope after H.E. staining at 5 μm-paraffin sections. FIG. 11A is a figure of micrograph showing healing of pulpitis state 14 days after MMP3 application in the upper premolar tooth of the dog in which pulpitis had been produced. FIG. 11B is a figure of micrograph of the high power to show healing of pulpitis state 14 days after MMP3 application in the upper premolar tooth of the dog in which pulpitis had been produced. FIG. 11C is a figure of micrograph 14 days in case of the PBS control of the upper premolar tooth of the dog in which pulpitis produces had been produced. FIG. 11D is a figure of micrograph of the high power 14 days in case of the PBS control of the upper premolar tooth of the dog n which pulpitis had been produced.

[5] = tested on: amputated pulp of dog upper premolar teeth; experiment: Dog pulpotomy model; assay type: in vivo; conditions: 100 ng MMP3 in spongel, 14 days
Procedure: After pulpotomy of dog upper premolar teeth, the amputated pulp was washed with 5% sodium hypochlorite solution and 3% hydrogen peroxide and further was washed with a saline, 100 ng of MMP3 absorbed in spongel was applied on the amputated pulp. Furthermore, the cavity was provisionally filled with phosphate cement and sealed with a chemical polymerization composite resin after application of a bonding agent. The tooth was extracted 14 days after treatment and fixed with 4% paraformaldehyde fixation at 4° C. overnight and decalcified at 4° C. in 10% formic acid for one week. Reparative dentin formation was observed after HE staining under light microscopy in the longitudinal paraffin 5 μm-section.

[6] = tested on: amputated pulp of rat upper incisor; experiment: Rat pulp amputated model; assay type: in vivo
Procedure: After pulpotomy of rat upper incisor, and wash with a saline, 50 ng of MMP3 adsorbed in spongel was applied to the amputated pulp. As a control, 50 ng of MMP3 and 30 nmol NNGH adsorbed in spongel was applied to the amputated pulp. The cavity was temporally sealed with a bonding agent and a photopolymerization type composite resin (Unifil low flow, GC, Tokyo). 24 hours, 72 hours, or 7 days after application, the paraffin sections of the 5 μm thickness were examined morphologically after HE staining or Masson Trichrome staining.
For quantitative analysis of newly formed blood vessels, each 5 frozen sections at 24 hours after treatment both with MMP3 and control PBS from 4 incisors each, total 40 sections were stained with Fluorescein Griffonia (Bandeiraea) Simplicifolia lectin (BS1-lectin) as described above. Three rectangles of a standardized size (0.1 mm^2) were drawn in the upper part of pulp tissue under the amputated site in every five sections from one sample. The lectin-positive area relative to total area (1.5 mm^2) was quantitatively analyzed in a standardized procedure using BZ-II Analyzer (Keyence) software on a Keyence BZ-9000 fluorescence microscope (Keyence, Tokyo, Japan). The data were presented as means±standard deviation at 4 determinations.
To evaluate effect of MMP3 on proliferation, immunohistochemical analysis of Proliferating Cell Nuclear Antigen (PCNA) was performed. Paraffin sections of 24 hours after treatment were deparaffinized and antigen was retrieved by antigen unmasking solution (Vector Laboratories, Burlingame, Calif.) according to the manufacturer's instructions. Endogenous peroxidase activity and nonspecific staining were blocked as described earlier. The sections were incubated with anti-PCNA antibody (Dako) at dilutions of 1:100 in antibody diluent (Dako) overnight at 4° C., and further incubated with a peroxidase-conjugated secondary antibody (ImmPRESS reagent; Vector Laboratories) for 30 min at room temperature. After development by DAB Liquid System (Dako), sections were counterstained with hematoxylin, and photographed on an Olympus Vanox-s microscope (Olympus, Tokyo, Japan). For quantitative analysis of proliferating cells, each 3 paraffin sections at 24 hours after treatment both with MMP3 and control PBS from 4 incisors each were used. Three rectangles of a standardized size (0.1 mm^2) were drawn in the upper part of pulp tissue under the amputated site in every 3 sections. The positive staining cells were counted and quantitatively analyzed. The data were presented as means±standard deviation at 4 determinations.
For quantitative analysis of matrix formation, each 5 paraffin sections at 72 hours after treatment both with MMP3 and control PBS from 4 incisors each, and 5 sections at 7 days after treatment with MMP3, NNGH, and control PBS from 4 incisors each were stained with Masson's trichrome staining. The positive area was quantitatively analyzed in the upper part of pulp tissue under the amputated site, 2 mm in depth from the amputated site, using BZ-II Analyzer software. The data were presented as means±standard deviation at 4 determinations.

HUVEC [7] = experiment: Anti-apoptotic effect, staurosporine-induced apoptosis (Annexin V-FITC/Propidium Iodide flow cytometry); assay type: cell-based, human
Procedure: NNGH was added 30 minutes before adding MMP3. As a control, cells were cultured in EBM-2 without adding any in the presence of staurosporine. Four hours later, HUVEC was detached from the dish and stained with Annexin V-FITC (Roche) and Propidium Iodide (Sigma) in a cell suspension for 15 minutes and measured ratio of necrosis and apoptosis in flow cytometer JSAN (Bay Bioscience, Kobe).

Question: “MMP3: human MMP3 (Chemicon); protein of the MMP family, referred to as stromelysin 1; active ingredient of the medicament” was tested. Which “differentiation inductive effect into odontoblasts (Dspp, enamelysin mRNA) in comparison with control without MMP3” value [1] did it give?
Answer: The value was “not seen”.

Question: And the “migration promotion effect on HUVEC in comparison with control” value (HUVEC [2]; 10 ng/ml, 24 hours)?
Answer: The value was “significant difference was not detected”.

Question: What about the “migration of HUVEC, increase compared with the control” value (HUVEC [2]; 100 ng/ml, 24 hours, control 0.02% bovine serum albumin) of the same compound?
Answer: The value was “approximately 3.5 times”.

Question: And the “increase of proliferation, 48-hour application in comparison with 2-hour application” value ([3]; MMP3 50 ng/mL)?
Answer: The value was “approximately 10 times”.

Question: And the “proliferation under the amputated pulp” value ([4]; 100 ng MMP3, 14 days)?
Answer: Its value is “seen”.

Question: What about the reparative dentin formation ([4]; 100 ng MMP3, 14 days) of the same compound?
Answer: The reparative dentin formation was “sometimes observed”.

Question: What about the vascularization ([4]; 100 ng MMP3, 14 days) of the same compound?
Answer: Its vascularization is “enhanced”.

Question: What about the “inflammation state of the pulp” value ([4]; 100 ng MMP3 in spongel, 14 days) of the same compound?
Answer: The value was “very slight”.

Question: What about the “cell proliferation in the vicinity of the amputated surface” value [5] of the same compound?
Answer: The value was “a large number”.

Question: What about the “reparative dentin formation in the upper part of the amputated pulp” value [5] of the same compound?
Answer: Its value is “a large quantity”.

Question: What about the “PCNA positively staining cells” value ([6]; 50 ng MMP3, 24 hours after pulpotomy, pulp under the amputated site) of the same compound?
Answer: Its value is 98.5 cells/mm^2.

Question: What about the “increase of the vascularization density versus PBS group” value ([6]; 50 ng MMP3, 24 hours, BS1-lectin positive area) of the same compound?
Answer: The value was “double”.

Question: What about the “newly formed blood vessels stained with BS1-lectin under the amputated surface, in comparison with MMP3 free group” value ([6]; 50 ng MMP3 in spongel, 24 hours after pulpotomy) of the same compound?
Answer: Its value is “more detected”.

Question: And the “PCNA positively staining cells, increase versus non applied group” value ([6]; 24 hours after pulpotomy)?
Answer: The value was 2.7 times.

Question: What about the “osteodentin formation around newly differentiated odontoblasts/osteodentinoblasts (Masson's Trichrome staining)” value ([6]; 72 hours after application) of the same compound?
Answer: Its value is “observed”.

Question: What about the “DSPP mRNA expression in newly differentiated odontoblasts/osteodentinoblasts (in situ hybridization)” value ([6]; 72 hours after pulpotomy) of the same compound?
Answer: The value was “seen”.

Question: What about the “amount of osteodentin in comparison with non applied MMP3 (HE staining)” value ([6]; 72 hours after pulpotomy) of the same compound?
Answer: Its value is “larger amount”.

Question: What about the “inflammatory cell infiltration (HE staining)” value ([6]; 72 hours after pulpotomy) of the same compound?
Answer: The value was “not observed”.

Question: And the “dentin matrix formation under the amputated site, increase in comparison with PBS control group” value ([6]; 72 hours after pulpotomy, P<0.01)?
Answer: The value was 3.8 times.

Question: And the apoptotic cells (HUVEC [7]; MMP3 50 ng/ml added at the same time of Staurosporine 100 nM, four hours)?
Answer: The apoptotic cells was 20%.

Question: How did the migration effect (HUVEC [2]; HUVEC, 50 ng/ml of MMP10) turn out when “MMP10/Stromelysin-2: MMP-10 (R&D Systems); an isomer of MMP3” was run?
Answer: Its migration effect is “did not have”.

Question: And the proliferative effect ([3]; MMP-10 50 ng/mL)?
Answer: Its proliferative effect is “did not have”.

Question: And the anti-apoptotic effect (HUVEC [7]; 50 ng/ml of MMP10, staurosporine 100 nM)?
Answer: Its anti-apoptotic effect is “did not have”.

Question: Which “apoptosis, % of cells” value (HUVEC [7]; Staurosporine 100 nM alone, four hours) does the source give for `CN[C@@H]1C[C@H]2O[C@@](C)([C@@H]1OC)n1c3ccccc3c3c4c(c5c6ccccc6n2c5c31)C(=O)NC4` [Staurosporine, reference compound] here?
Answer: The value was 52%.

Question: With `COc1ccc(S(=O)(=O)N(CC(=O)NO)CC(C)C)cc1` [NNGH, N-Isobutyl-N-(4-methoxyphenylsulfonyl)-glycylhydroxamic acid, reference compound] as the compound, how does the “migration effect of MMP3 when NNGH added at the same time” value (HUVEC [2]; HUVEC, 100 ng/ml MMP3 and 0.13 μmol NNGH) read?
Answer: The value was “inhibited”.

Question: And the “proliferative effect of MMP3 when NNGH added at the same time” value ([3]; MMP3 50 ng/mL with NNGH 0.13 μM)?
Answer: The value was “restrained”.

Question: And the “proliferative effect in comparison with the no addition group of MMP3” value ([3]; NNGH added)?
Answer: The value was “almost the same”.

Question: And the “dentin matrix formation in comparison with PBS control group” value ([6]; 7 days after pulpotomy, P<0.01)?
Answer: Its value is “Significant decrease”.

Question: What about the “anti-apoptotic effect of MMP3 when NNGH added at the same time” value (HUVEC [7]; 50 ng/ml MMP3 with 0.13 μmol NNGH, staurosporine 100 nM) of the same compound?
Answer: The value was “inhibited”.

— patent US9597360B2, “Method of treatment for pulpitis and/or enhancement for dentinogenesis” (National Center for Geriatrics and Gerontology, priority 2008, dated 2017)
